From patent US8231693B2, “5-substituted 2-(alkoxymethyl)furans” (Furanix Technologies B.V., priority 2007, dated 2012)

Assay: Fuel solubility: miscibility in blends with commercial diesel
Type: physicochemical
From the text: Fuel solubility is a primary concern for diesel fuel applications. Not all highly polar oxygenates have good solubility in the current commercial diesel fuels.

[1] = all blend ratios with commercial diesel

Row | SMILES | miscibility with commercial diesel [1] | miscibility with commercial diesel (5 vol % blend with commercial diesel) | miscibility with commercial diesel (25 vol % blend with diesel) | miscibility with commercial diesel (40 vol % blend with diesel)
1 | CCOCc1ccc(COCC)o1 [2,5-di(ethoxymethyl)furan] | miscible in all blend ratio's | – | – | –
2 | CCOCc1ccc(COC(C)(C)C)o1 [5-(tertbutoxymethyl)-2-(ethoxymethyl)furan] | miscible in all blend ratio's | – | – | –
3 | CCOCc1ccc(C=O)o1 [EMF, 5-(ethoxymethyl)furfural] | – | completely miscible | phase separation occurs | phase separation occurs
